# Results: patent US7998414B2, “System for high throughput GPCR functional assay” (priority 2007, dated 2011)
# Target: T1, opioid receptor mu (OPRM) (Homo sapiens, UniProt P35372)
# T1 construct: purchased Perkin-Elmer Life Science (Boston, Mass.)
# Assay: Eu-GTP based functional assay on GPCR microarray on porous glass substrate
# Format: biochemical
# Details: multiplexed array; Eu-GTP 10 nM, GDP 3 μM, 1 hour; FIG. 5E
# T1 sequence (P35372 whole entry): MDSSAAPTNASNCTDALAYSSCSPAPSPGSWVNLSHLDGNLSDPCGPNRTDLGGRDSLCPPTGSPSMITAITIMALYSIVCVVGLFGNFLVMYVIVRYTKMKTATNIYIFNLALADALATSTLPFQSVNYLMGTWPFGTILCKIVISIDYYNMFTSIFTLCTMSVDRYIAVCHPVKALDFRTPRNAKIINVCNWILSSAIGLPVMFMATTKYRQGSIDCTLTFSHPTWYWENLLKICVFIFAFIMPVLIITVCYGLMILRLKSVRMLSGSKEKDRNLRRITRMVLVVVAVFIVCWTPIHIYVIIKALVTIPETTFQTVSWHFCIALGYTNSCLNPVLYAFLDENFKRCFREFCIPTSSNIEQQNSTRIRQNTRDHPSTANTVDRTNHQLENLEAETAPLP
smiles,measurement,value
C[C@@H](NC(=O)[C@@H](N)Cc1ccc(O)cc1)C(=O)NCC(=O)N(C)[C@@H](Cc1ccccc1)C(=O)NCCO [DAMGO],activation of OPRM receptors by agonist (Eu-GTP fluorescence image),selective activation
